Assay results: the supplement of paper PMC5579334

Assays:
HSC2 [1] = experiment: relative IC50 (inflection point of fitted dose-response curve, CellTox-Green cytotoxicity, 72 h; top asymptote may be below 50%); higher = less potent
Procedure, shortened: (§1)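 For 72 h at 37 °C, MPNST cell lines and primary human Schwann cells were exposed in 384-well plates to five 10-fold compound dilutions. CellTox-Green, added before seeding at a final 1:1000 dilution, gave fluorescence from DNA released by disrupted cells. Signals were scaled to vehicle and positive-control wells, cultures failing plate quality control were left out, and four-parameter logistic fits were applied. Relative IC50 and drug sensitivity score were derived from the fits, with IC50 censored at the top concentration.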

HS-PSS [2] = experiment: as above
Procedure, shortened: as §1

STS26T [3] = experiment: as above
Procedure, shortened: as §1

ST8814 [4] = experiment: as above
Procedure, shortened: as §1

HSC1 [5] = experiment: as above
Procedure, shortened: as §1

S462 = experiment: relative IC50 (inflection point of fitted dose-response curve, CellTiter-Glo viability, 72 h; top asymptote may be below 50% inhibition); higher = less potent
Procedure, shortened: (§2)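 MPNST cell lines and primary human Schwann cells were seeded at 750–1000 cells per well into 384-well plates preprinted with each compound at five concentrations in 10-fold steps, then incubated 72 h at 37 °C, 5% CO2. CellTiter-Glo ATP luminescence gave viability, scaled between vehicle and positive-control wells, with duplicates averaged where present. Curves were fitted with a four-parameter logistic model. Percent inhibition refers to the top concentration, while drug sensitivity score and relative IC50, censored at the top concentration, come from these fits.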

HSC2 [6] = experiment: as above
Procedure, shortened: as §2

HS-PSS [7] = experiment: as above
Procedure, shortened: as §2

YST-1 = experiment: as above
Procedure, shortened: as §2

ST8814 [8] = experiment: as above
Procedure, shortened: as §2

STS26T [9] = experiment: as above
Procedure, shortened: as §2

HSC1 [10] = experiment: as above
Procedure, shortened: as §2

HS-Sch-2 = experiment: as above
Procedure, shortened: as §2

S1507-2 = experiment: as above
Procedure, shortened: as §2

Structure (SMILES)	relative IC50 (HSC2 [1]) [µM]	relative IC50 (HS-PSS [2]) [µM]	relative IC50 (STS26T [3]) [µM]	relative IC50 (ST8814 [4]) [µM]	relative IC50 (HSC1 [5]) [µM]	relative IC50 (S462) [µM]	relative IC50 (HSC2 [6]) [µM]	relative IC50 (HS-PSS [7]) [µM]	relative IC50 (YST-1) [µM]	relative IC50 (ST8814 [8]) [µM]	relative IC50 (STS26T [9]) [µM]	relative IC50 (HSC1 [10]) [µM]	relative IC50 (HS-Sch-2) [µM]	relative IC50 (S1507-2) [µM]
Nc1ncnc2c1c(COc1cccc(Cl)c1)nn2C1CCOCC1	> 10	> 10	> 10	> 10	> 10	> 10	> 10	> 10	> 10	> 10	–	–	–	–
CN(C)C/C=C/C(=O)Nc1cc2c(Nc3ccc(F)c(Cl)c3)ncnc2cc1O[C@H]1CCOC1 [Afatinib]	> 1	> 1	> 1	> 1	> 1	> 1	> 1	0.148	> 1	> 1	> 1	> 1	–	–
CNC(=O)c1ccccc1Sc1ccc2c(/C=C/c3ccccn3)n[nH]c2c1 [Axitinib]	–	> 10	1.38	–	–	0.933	0.694	2.58	0.972	1.36	1.51	1.2	1.7	–
C=C(c1ccc(C(=O)O)cc1)c1cc2c(cc1C)C(C)(C)CCC2(C)C [Bexarotene]	> 10	> 10	> 10	> 10	> 10	> 10	> 10	> 10	> 10	> 10	> 10	–	> 10	–
Cc1c(N)nc([C@H](CC(N)=O)NC[C@H](N)C(N)=O)nc1C(=O)N[C@H](C(=O)N[C@H](C)[C@@H](O)[C@H](C)C(=O)N[C@H](C(=O)NCCc1nc(-c2nc(C(=O)NCCC[S+](C)C)cs2)cs1)[C@@H](C)O)[C@@H](O[C@@H]1O[C@@H](CO)[C@@H](O)[C@H](O)[C@@H]1O[C@H]1O[C@H](CO)[C@@H](O)[C@H](OC(N)=O)[C@@H]1O)c1c[nH]cn1 [Bleomycin]	–	–	0.328	2.85	> 10	2.27	0.284	0.835	0.594	1.62	1.67	0.58	0.923	–
COc1cc2c(Oc3ccc4[nH]c(C)cc4c3F)ncnc2cc1OCCCN1CCCC1 [Cediranib]	–	> 1	> 1	–	> 1	> 1	> 1	–	> 1	> 1	> 1	–	> 1	–
CC1=C2C[C@H]3[C@@H](CC=C4C[C@@H](O)CC[C@@]43C)[C@@H]2CC[C@]12O[C@@H]1C[C@H](C)CN[C@H]1[C@H]2C [Cyclopamine]	> 10	–	> 10	> 10	> 10	> 10	> 10	–	–	> 10	> 10	> 10	–	–
CN(C)/N=N/c1[nH]cnc1C(N)=O [Dacarbazine]	> 10	> 10	> 10	> 10	> 10	–	> 10	> 10	> 10	> 10	–	> 10	> 10	> 10
Nc1ncn([C@H]2C[C@H](O)[C@@H](CO)O2)c(=O)n1 [Decitabine]	> 10	> 10	> 10	> 10	> 10	0.273	2.26	> 10	> 10	–	–	–	0.782	–
CNC(=O)c1ccc(N2C(=S)N(c3ccc(C#N)c(C(F)(F)F)c3)C(=O)C2(C)C)cc1F [Enzalutamide]	> 10	> 10	> 10	> 10	> 10	> 10	> 10	> 10	> 10	–	> 10	–	> 10	–
Cc1c(C(=O)Nc2ccc(N3C[C@@H](C)O[C@@H](C)C3)nc2)cccc1-c1ccc(OC(F)(F)F)cc1 [Erismodegib]	–	–	> 10	> 10	–	> 10	> 10	–	–	> 10	–	> 10	–	–
Cc1cccc(-c2nn3c(c2-c2ccnc4ccc(C(N)=O)cc24)CCC3)n1 [Galunisertib]	> 1	> 1	> 1	> 1	> 1	–	–	> 1	> 1	> 1	–	> 1	> 1	> 1
Cc1ccc(NC(=O)c2ccc(CN3CCN(C)CC3)cc2)cc1Nc1nccc(-c2cccnc2)n1 [Imatinib]	> 10	–	> 10	3.58	> 10	–	> 10	2.38	1.95	3.53	–	> 10	3.19	1.96
CN(C)C(=N)NC(=N)N [Metformin aq]	> 100	–	> 100	> 100	> 100	–	> 100	–	–	> 100	> 100	> 100	–	> 100
CCN1CCN(c2ccc(Nc3cc(N(C)C(=O)Nc4c(Cl)c(OC)cc(OC)c4Cl)ncn3)cc2)CC1 [NVP-BGJ398]	> 1	> 1	> 1	> 1	> 1	> 1	> 1	> 1	> 1	–	> 1	> 1	> 1	–
COc1nc(N)nc2c1ncn2[C@@H]1O[C@H](CO)[C@@H](O)[C@@H]1O [Nelarabine]	–	> 10	> 10	> 10	> 10	> 10	> 10	> 10	> 10	> 10	> 10	> 10	> 10	–
COc1ccc(C2=N[C@@H](c3ccc(Cl)cc3)[C@@H](c3ccc(Cl)cc3)N2C(=O)N2CCNC(=O)C2)c(OC(C)C)c1 [Nutlin-3]	> 10	> 10	> 10	–	> 10	> 10	1.22	–	1.41	2.05	–	1.49	> 10	–
O=C(c1cc(Cc2n[nH]c(=O)c3ccccc23)ccc1F)N1CCN(C(=O)C2CC2)CC1 [Olaparib]	–	> 10	3.43	3.36	> 10	2	1.34	–	0.426	3.54	2.33	1.67	1.36	–
Cc1ccc(Nc2nccc(N(C)c3ccc4c(C)n(C)nc4c3)n2)cc1S(N)(=O)=O [Pazopanib]	> 10	> 10	> 10	> 10	> 10	> 10	–	0.605	> 10	> 10	> 10	–	–	–
CC[C@@H]1C(=O)OC[C@@H]1Cc1cncn1C [Pilocarpine]	> 40	> 40	> 40	> 40	> 40	> 40	> 40	> 40	> 40	> 40	> 40	> 40	–	–
Nc1cccc2c1C(=O)N(C1CCC(=O)NC1=O)C2=O (stereo unspecified) [Pomalidomide]	> 10	> 10	> 10	> 10	> 10	–	> 10	> 10	> 10	> 10	> 10	> 10	> 10	–
CNC(=O)c1ccc(N2C(=S)N(c3ccc(C#N)c(C(F)(F)F)c3)C(=O)C23CCC3)cc1F [RD162]	> 10	> 10	> 10	> 10	> 10	> 10	> 10	> 10	> 10	–	> 10	–	> 10	–
CC(C)N(CCCNC(=O)Nc1ccc(C(C)(C)C)cc1)C[C@H]1O[C@@H](n2cc(Br)c3c(N)ncnc32)[C@H](O)[C@@H]1O [SGC0946]	> 10	2.49	> 10	3.07	> 10	–	–	1.94	3.67	3.45	> 10	–	3	2.09
CO[C@H]1C[C@@H]2CC[C@@H](C)[C@@](O)(O2)C(=O)C(=O)N2CCCC[C@H]2C(=O)O[C@H]([C@H](C)C[C@@H]2CC[C@@H](O)[C@H](OC)C2)CC(=O)[C@H](C)/C=C(\C)[C@@H](O)[C@@H](OC)C(=O)[C@H](C)C[C@H](C)/C=C/C=C/C=C/1C [Sirolimus]	> 0.1	> 0.1	> 0.1	> 0.1	> 0.1	> 0.1	–	0.00371	0.00609	–	0.0217	–	0.00638	–
CC/C(=C(\c1ccccc1)c1ccc(OCCN(C)C)cc1)c1ccccc1 [Tamoxifen]	> 10	> 10	–	2.49	> 10	–	3.37	3.9	3.25	3.34	–	–	2.3	3.95
CC(C)C[C@@H](C(=O)N[C@H](C(=O)OC1CCCC1)c1ccccc1)[C@H](O)C(=O)NO [Tosedostat]	> 10	> 10	0.0253	–	> 10	0.424	0.0761	3.27	0.222	1.24	0.0814	0.138	0.258	–
CC1=C(/C=C/C(C)=C/C=C/C(C)=C/C(=O)O)C(C)(C)CCC1 [Tretinoin]	> 10	> 10	> 10	> 10	> 10	> 10	–	> 10	> 10	–	–	0.361	> 10	–
COc1cc2/c(=N/c3ccc(Br)cc3F)nc[nH]c2cc1OCC1CCN(C)CC1 [Vandetanib]	> 1	–	> 1	–	> 1	> 1	> 1	0.0865	> 1	> 1	–	> 1	> 1	–
